Reference: ChEMBL document CHEMBL1201862, “PubChem BioAssay data set” (2004)
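Step 1: Grow cells in 96-well plates. Step 2: Expose to compound for 48 hours at 5 concentrations. Step 3: Interpolate endpoints linearly; if unreached, use highest concentration. GI50 marks 50% less growth.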 Calls of active or inactive are those of the source. Cut-off read from the data, not from the text of the source: active = GI50 up to about 1.1 µM and inactive = higher.

Assays:
Assay in all cases: NCI tumour cell line growth inhibition, 48 h
786-0 = test system: 786-0
A498 = test system: A498
A549 = test system: A549
ACHN = test system: ACHN
BT-549 = test system: BT-549
CAKI-1 = test system: CAKI-1
CCRF-CEM = test system: CCRF-CEM
DU-145 = test system: DU-145
EKVX = test system: EKVX
HCC 2998 = test system: HCC 2998
HCT-116 = test system: HCT-116
HCT-15 = test system: HCT-15
HOP-62 = test system: HOP-62
HOP-92 = test system: HOP-92
HT-29 = test system: HT-29
Hs-578T = test system: Hs-578T
IGROV-1 = test system: IGROV-1
K562 = test system: K562
KM12 = test system: KM12
LOX IMVI = test system: LOX IMVI
M14 = test system: M14
MDA-MB-231 = test system: MDA-MB-231
MDA-MB-435 = test system: MDA-MB-435
MDA-N = test system: MDA-N
MOLT-4 = test system: MOLT-4
Malme-3M = test system: Malme-3M
NCI-H226 = test system: NCI-H226
NCI-H23 = test system: NCI-H23
NCI-H460 = test system: NCI-H460
NCI-H522 = test system: NCI-H522
NCI/ADR-RES = test system: NCI/ADR-RES
OVCAR-3 = test system: OVCAR-3
OVCAR-4 = test system: OVCAR-4
OVCAR-5 = test system: OVCAR-5
OVCAR-8 = test system: OVCAR-8
PC-3 = test system: PC-3
RXF 393 = test system: RXF 393
SF-268 = test system: SF-268
SF-295 = test system: SF-295
SK-MEL-28 = test system: SK-MEL-28
SK-MEL-2 = test system: SK-MEL-2
SK-MEL-5 = test system: SK-MEL-5
SN12C = test system: SN12C
SNB-19 = test system: SNB-19
SNB-75 = test system: SNB-75
SR = test system: SR
SW-620 = test system: SW-620
T47D = test system: T47D
TK-10 = test system: TK-10
U-251 = test system: U-251
UACC-257 = test system: UACC-257
UACC-62 = test system: UACC-62
UO-31 = test system: UO-31
COLO 205 = test system: COLO 205
HL-60 = test system: HL-60
MCF7 = test system: MCF7
RPMI-8226 = test system: RPMI-8226
SF-539 = test system: SF-539
SK-OV-3 = test system: SK-OV-3

Measured: GI50

O=C(NCCO)c1ccc(Cl)cc1
> 100 µM: HCT-15
inactive: 786-0 > 100 µM | A498 > 100 µM | A549 > 100 µM | ACHN > 100 µM | BT-549 > 100 µM | CAKI-1 > 100 µM | CCRF-CEM 26.1 µM | DU-145 > 100 µM | EKVX > 100 µM | HCC 2998 > 100 µM | HCT-116 > 100 µM | HOP-62 > 100 µM | HOP-92 > 100 µM | HT-29 > 100 µM | Hs-578T > 100 µM | IGROV-1 > 100 µM | K562 > 100 µM | KM12 > 100 µM | LOX IMVI > 100 µM | M14 > 100 µM | MDA-MB-231 > 100 µM | MDA-MB-435 > 100 µM | MDA-N > 100 µM | MOLT-4 > 100 µM | Malme-3M > 100 µM | NCI-H226 > 100 µM | NCI-H23 > 100 µM | NCI-H460 > 100 µM | NCI-H522 > 100 µM | NCI/ADR-RES > 100 µM | OVCAR-3 > 100 µM | OVCAR-4 > 100 µM | OVCAR-5 > 100 µM | OVCAR-8 > 100 µM | PC-3 > 100 µM | RXF 393 > 100 µM | SF-268 > 100 µM | SF-295 > 100 µM | SK-MEL-28 > 100 µM | SK-MEL-2 > 100 µM | SK-MEL-5 > 100 µM | SN12C > 100 µM | SNB-19 > 100 µM | SNB-75 > 100 µM | SR > 100 µM | SW-620 > 100 µM | T47D > 100 µM | TK-10 > 100 µM | U-251 > 100 µM | UACC-257 > 100 µM | UACC-62 > 100 µM | UO-31 > 100 µM

C#CCSc1cnc2ccccc2c1Sc1c[nH]c2ccccc2c1=O
inactive: 786-0 12.4 µM | A549 14.4 µM | ACHN 13.6 µM | BT-549 28.7 µM | CAKI-1 23.7 µM | CCRF-CEM > 100 µM | COLO 205 24 µM | DU-145 51.3 µM | EKVX 19.1 µM | HCC 2998 17.9 µM | HCT-116 13.3 µM | HL-60 16.6 µM | HOP-62 26.5 µM | HOP-92 16.1 µM | HT-29 21.2 µM | Hs-578T 48.2 µM | IGROV-1 3.29 µM | K562 9.35 µM | KM12 21.1 µM | LOX IMVI 13.8 µM | M14 17 µM | MCF7 6.82 µM | MDA-MB-231 31.9 µM | MDA-MB-435 23.6 µM | MDA-N 18.1 µM | MOLT-4 4.53 µM | Malme-3M 19.4 µM | NCI-H226 21 µM | NCI-H23 15.4 µM | NCI-H460 11.7 µM | NCI-H522 6.58 µM | NCI/ADR-RES 33 µM | OVCAR-3 23.4 µM | OVCAR-4 20.9 µM | OVCAR-5 32.7 µM | OVCAR-8 24.7 µM | PC-3 17.6 µM | RPMI-8226 4.2 µM | RXF 393 13.6 µM | SF-268 29.9 µM | SF-295 24.1 µM | SF-539 28.6 µM | SK-MEL-28 34.8 µM | SK-MEL-2 19.1 µM | SK-MEL-5 15.6 µM | SK-OV-3 30.3 µM | SN12C 12.8 µM | SNB-19 16.1 µM | SNB-75 15.9 µM | SR 3.86 µM | SW-620 24.8 µM | T47D 10.9 µM | TK-10 40.2 µM | U-251 15 µM | UACC-257 17.6 µM | UACC-62 17.1 µM | UO-31 2.14 µM
16.1 µM: HCT-15

O=C1c2ccccc2C(=O)N1C(=S)c1ccccc1
inactive: 786-0 > 100 µM | A549 > 100 µM | ACHN > 100 µM | BT-549 > 100 µM | CAKI-1 > 100 µM | CCRF-CEM > 100 µM | COLO 205 > 100 µM | DU-145 > 100 µM | EKVX > 100 µM | HCC 2998 > 100 µM | HCT-116 > 100 µM | HL-60 > 100 µM | HOP-62 > 100 µM | HOP-92 > 100 µM | HT-29 > 100 µM | Hs-578T > 100 µM | IGROV-1 > 100 µM | K562 > 100 µM | KM12 > 100 µM | LOX IMVI > 100 µM | M14 > 100 µM | MCF7 > 100 µM | MDA-MB-231 > 100 µM | MDA-MB-435 > 100 µM | MDA-N > 100 µM | MOLT-4 > 100 µM | Malme-3M > 100 µM | NCI-H226 > 100 µM | NCI-H23 > 100 µM | NCI-H460 > 100 µM | NCI-H522 > 100 µM | NCI/ADR-RES > 100 µM | OVCAR-3 > 100 µM | OVCAR-4 > 100 µM | OVCAR-5 > 100 µM | OVCAR-8 > 100 µM | PC-3 > 100 µM | RPMI-8226 > 100 µM | RXF 393 > 100 µM | SF-268 > 100 µM | SF-295 > 100 µM | SF-539 > 100 µM | SK-MEL-28 > 100 µM | SK-MEL-2 > 100 µM | SK-MEL-5 > 100 µM | SK-OV-3 > 100 µM | SN12C > 100 µM | SNB-19 > 100 µM | SNB-75 > 100 µM | SR > 100 µM | SW-620 > 100 µM | T47D > 100 µM | TK-10 > 100 µM | U-251 > 100 µM | UACC-257 > 100 µM | UACC-62 > 100 µM | UO-31 > 100 µM
> 100 µM: HCT-15

O=C(CCc1ccccc1)On1c(-c2ccccc2)nc2ccccc2c1=S
inactive: 786-0 2.06 µM | A498 65.8 µM | A549 3.65 µM | ACHN 5.69 µM | BT-549 14.5 µM | CAKI-1 5.68 µM | CCRF-CEM 1.77 µM | COLO 205 4.28 µM | DU-145 9.71 µM | EKVX 6.78 µM | HCC 2998 4.52 µM | HCT-116 2.01 µM | HL-60 3.05 µM | HOP-62 3.66 µM | HOP-92 42.7 µM | HT-29 3.85 µM | Hs-578T 13.1 µM | K562 4.6 µM | KM12 3.87 µM | M14 5.57 µM | MCF7 4.54 µM | MDA-MB-231 51.5 µM | MDA-MB-435 8.18 µM | MDA-N 12.9 µM | Malme-3M 3.61 µM | NCI-H226 5.62 µM | NCI-H23 4.3 µM | NCI-H460 1.35 µM | NCI/ADR-RES 4.08 µM | OVCAR-3 4.99 µM | OVCAR-4 2.9 µM | OVCAR-5 18.9 µM | OVCAR-8 4.44 µM | PC-3 4.73 µM | RPMI-8226 7.28 µM | RXF 393 18.6 µM | SF-268 3.07 µM | SF-295 3.99 µM | SF-539 3.92 µM | SK-MEL-28 16.1 µM | SK-MEL-2 8.81 µM | SK-MEL-5 4.47 µM | SK-OV-3 6.84 µM | SN12C 11.9 µM | SNB-19 14.8 µM | SNB-75 9.77 µM | SW-620 8.26 µM | T47D 6.79 µM | TK-10 18.9 µM | U-251 4.38 µM | UACC-257 22.9 µM | UACC-62 3.94 µM | UO-31 3.66 µM
2.32 µM: HCT-15
active: IGROV-1 0.515 µM | LOX IMVI 0.456 µM | MOLT-4 0.455 µM

O=C(O)[C@@H]1C2CC([C@@H]1C(=O)O)[C@H](N1C(=O)CCC1=O)[C@@H]2Br (stereo partly drawn)
inactive: 786-0 > 100 µM | A498 > 100 µM | A549 > 100 µM | ACHN > 100 µM | BT-549 > 100 µM | CCRF-CEM > 100 µM | COLO 205 > 100 µM | DU-145 > 100 µM | EKVX > 100 µM | HCC 2998 > 100 µM | HCT-116 > 100 µM | HL-60 > 100 µM | HOP-62 > 100 µM | HOP-92 > 100 µM | HT-29 > 100 µM | Hs-578T > 100 µM | IGROV-1 > 100 µM | K562 > 100 µM | KM12 > 100 µM | LOX IMVI > 100 µM | M14 > 100 µM | MDA-MB-231 > 100 µM | MDA-MB-435 > 100 µM | MDA-N > 100 µM | MOLT-4 > 100 µM | Malme-3M > 100 µM | NCI-H226 > 100 µM | NCI-H23 > 100 µM | NCI-H460 > 100 µM | NCI-H522 > 100 µM | NCI/ADR-RES > 100 µM | OVCAR-3 > 100 µM | OVCAR-4 > 100 µM | OVCAR-5 > 100 µM | OVCAR-8 > 100 µM | PC-3 > 100 µM | RPMI-8226 > 100 µM | RXF 393 > 100 µM | SF-268 > 100 µM | SF-295 > 100 µM | SF-539 > 100 µM | SK-MEL-28 > 100 µM | SK-MEL-2 > 100 µM | SK-MEL-5 > 100 µM | SK-OV-3 > 100 µM | SN12C > 100 µM | SNB-19 > 100 µM | SNB-75 84.5 µM | SR > 100 µM | SW-620 > 100 µM | T47D > 100 µM | TK-10 > 100 µM | U-251 > 100 µM | UACC-257 > 100 µM | UACC-62 > 100 µM | UO-31 > 100 µM
> 100 µM: HCT-15
